Consider 4 compounds from patent US7271154B2, “Antibiotic conjugates” (Merckle GmbH, priority 2002, dated 2007).

For series [1] the following is noted: compared with erythromycin; cited from earlier work.
For series [2], the system named is PMN. The experiment in a line: Antimicrobial agent uptake by PMN (bioassay). The series is classed as in vitro ADME. The settings on record: intracellular/extracellular concentration, 1 h.

As for `CC[C@H]1OC(=O)[C@H](C)[C@@H](O[C@H]2C[C@@](C)(OC)[C@@H](O)[C@H](C)O2)[C@H](C)[C@@H](O[C@@H]2O[C@H](C)C[C@H](N(C)C)[C@H]2O)[C@](C)(O)C[C@@H](C)CN(C)[C@H](C)[C@@H](O)[C@]1(C)O` [Azithromycin], the “stability in the presence of acids” value in series [1] is “more stable than erythromycin”.

For the compound `C[C@H]1COc2c(N3CCN(C)CC3)c(F)cc3c(=O)c(C(=O)O)cn1c23` [Levofloxacin], in series [2], the I/E ratio worked out at 4.8.

In the case of `COc1c(N2C[C@@H]3CCCN[C@@H]3C2)c(F)cc2c(=O)c(C(=O)O)cn(C3CC3)c12` [Moxifloxacin], the I/E ratio in series [2] was found to be 12.0.

For the compound `CC1(C)SC2C(NC(=O)Cc3ccccc3)C(=O)N2C1C(=O)O` (stereo not shown) [Penicillin G, 3,3-Dimethyl-7-oxo-6-phenylacetylamino-4-thia-1-aza-bicyclo[3.2.0]heptane-2-carboxylic acid], the I/E ratio in series [2] amounted to 0.16.
